# Laboratory results reported in patent US20120208776A1 (priority 2002, published 2012).
# Where “and” joins values, the source holds several entries; their conditions need not be identical. Equal values may be shown once. Read-outs that look alike come from different tables or passages of the source.
# How the values were obtained:
# [1] = test system: BT474 cells; assay: Cell proliferation, cell count (Coulter Counter); format: cell-based; conditions: Homo sapiens
# [2] = test system: MDA-MB-453 cells; assay: Cell-cycle analysis by DNA flow cytometry; format: cell-based, human; conditions: for Sub G1 (%) / G1 (%) / G2/M (%) / S (%): 48 hrs; for G1 / G2 / S / SubG1: 24 hours
# Description: Synchrony: To synchronize the cells, 3×10^5 cells were plated onto 10 cm dishes and grown for 2 days in DMEM supplemented with 10% fetal bovine serum.
# After incubation for 1-3 days, the supernatant was collected, and the cells were trypsinized, collected, and washed with phosphate buffered saline (PBS) containing 5% FBS. Cell pellets were re-suspended in 1 ml of PBS plus 5% FBS. Thereafter, 5 ml of 70% ethanol were added drop-wise, while vortexing the tube, and the mixture was stored at 4° C. Cells were centrifuged, washed with PBS plus 5% FBS, and re-suspended in 400 μl of propidium iodide (0.1 mg/ml) (Sigma Chemical Co.). 400 μl (2 mg/ml) of RNase (Sigma Chemical Co.) were added, and the cells were incubated in the dark at room temperature for 30 min.
# [3] = target: T1, Na^+-K^+-ATPase; assay: Enzymatic assay of adenosine 5′-triphosphatase; format: biochemical; conditions: read-out: IC50 (50% inhibition of Na^+-K^+-ATPase activity); purified enzyme, in vitro
# T1 construct: Combination index; actein (μM); Combination index; actein; ATPase activity; other: actein 0.8 μM alone; other: digitox
# Description: Enzymatic assay of adenosine 5′-triphosphatase. The enzymatic assay of ATPase (adenosine 5′-triphosphatase, EC 3.6.1.3) followed the Sigma Prod. […] [P] was determined by the Taussky-Shorr method.
# [4] = test system: T1, Na^+-K^+-ATPase; assay: Combination of agents on Na^+-K^+-ATPase activity, combination index; format: biochemical
# [5] = test system: HCC1569 cells; assay: MTT assay, 96 hours; format: cell-based; conditions: Homo sapiens
# [6] = test system: MDA-MB-453 cells; assay: Combination of agents, MTT assay, combination index
# Description: Calculating the Combination Index. To determine the Combination Index (CI), 1) the Na^+-K^+-ATPase enzyme or 2) MDA-MB-453 cells were exposed to all combinations of 3, 4 or 5 concentrations of each of the agents tested and a solvent control. […] The results of the enzymatic assay of ATPase or MTT assay were analyzed for possible synergistic effects using the median effect principle. Variable ratios of drugs were employed and mutually exclusive equations were assumed.
# Calculating the Combination Index.
# The simvastatin was obtained from Sigma of St. Louis, Mo. The concentrations tested in the present example were 0, 0.2, 2, 5, and 20 μg/ml actein and 0, 0.8, 4, 20 and 40 μg/ml simvastatin.
# [7] = test system: ERK2 in MDA-MB-453 cells; assay: RNAi-mediated gene knockdown of ERK2 (MAPK1), growth inhibition; format: cell-based, human; conditions: for inhibition at 20 µg/mL: Homo sapiens, MDA-MB-453, 48 h, actein 20 μg/ml, 48 h, read-out: percent growth inhibition; for cell proliferation: digitoxin 0.4 μg/ml, 24 hours
# Description: RNAi-mediated gene knockdown. To test the functional relevance of ERK2 (p42/44MAPK pathway), the growth inhibitory effects of actein on MDA-MB-453 cells using the model system RNAi-mediated gene knockdown was examined. Cells were pretreated with siRNA to ERK2 (Hs/Mm MAPK1 siRNA) (Qiagen, Valencia, Calif.) for 24 h, then treated with actein at 20 μg/ml for 48 h, and the percent surviving cells was assayed. Western blot analysis was performed to confirm the ERK2 knockdown.
# [8] = test system: MDA-MB-453 cells; assay: Cell proliferation, cell count (Coulter Counter); conditions: Homo sapiens, MDA-MB-453, 96 h
# Description: For the cell count assay, breast cancer cells were seeded, in triplicate, at 2×10^4 cells per well, in 24- or 96-well plates.
# For the Coulter counter assay, cells were seeded at 2×10^4 cells per well in 24 well plates (0.875 cm diameter) as described previously. […] Control and treated cells were compared using the student's t-test (p<0.05). For cell cycle analysis the cells were plated (3×10^5) onto 6 cm dishes and allowed to attach for 24 hours. […] After 24 hours the cells were analyzed by DNA flow cytometry, as described previously.
# [9] = Homo sapiens, MDA-MB-453, read-out: percent viable cells
compound,measurement,setting,value
CC(=O)O[C@@H]1C[C@@]23C[C@@]24CC[C@H](O[C@@H]2OC[C@@H](O)[C@H](O)[C@H]2O)C(C)(C)[C@@H]4CC[C@H]3[C@]2(C)C[C@@H]3O[C@]4(C[C@@H](C)[C@@H]3[C@@]12C)O[C@H](O)[C@@]1(C)O[C@@H]41 [actein],IC50,"[1]; BT-474, BT474, unit inferred, read-out: IC50",23.6 µM
same,Sub G1 (%),"[2]; (a) DMEM + […] FBS 48 hrs, then actein 20 μg/ml",1.8%
same,G1 (%),"[2]; (a) […] FBS, actein 20 μg/ml",79.6%
same,G2/M (%),"[2]; (a) […] FBS, actein 20 μg/ml",10.0%
same,S (%),"[2]; (a) […] FBS, actein 20 μg/ml",8.5%
same,G1 (%),"[2]; (a) […] FBS, actein 40 μg/ml",83.8%
same,G2/M (%),"[2]; (a) […] FBS, actein 40 μg/ml",9.0%
same,S (%),"[2]; (a) […] FBS, actein 40 μg/ml",4.9%
same,Sub G1 (%),"[2]; (a) […] FBS, actein 40 μg/ml",2.2%
same,G1 (%),[2]; (b) Actein 2 μg/mL,69.8%
same,G2/M (%),[2]; (b) Actein 2 μg/mL,18.6%
same,S (%),[2]; (b) Actein 2 μg/mL,11.0%
same,Sub G1 (%),[2]; (b) Actein 2 μg/mL,0.9%
same,G1 (%),[2]; (b) Actein 20 μg/mL,70.8%
same,G2/M (%),[2]; (b) Actein 20 μg/mL,18.2%
same,S (%),[2]; (b) Actein 20 μg/mL,9.7%
same,Sub G1 (%),[2]; (b) Actein 20 μg/mL,1.6%
same,G1 (%),[2]; (c) Actein 20 μg/mL,59.2%
same,G2/M (%),[2]; (c) Actein 20 μg/mL,29.5%
same,S (%),[2]; (c) Actein 20 μg/mL,8.6%
same,Sub G1 (%),[2]; (c) Actein 20 μg/mL,2.7%
same,IC50,[3],11.2 µM and 16 µM
same,ATPase activity,[4]; actein 0.8 μM alone,95.1%
same,IC50,"[5]; unit inferred, read-out: IC50",25 µM
same,viability at 0.2 µg/mL,[6]; [9],97.8%
same,viability at 2 µg/mL,[6]; [9],75.8%
same,viability at 5 µg/mL,[6]; [9],70.9%
same,cell survival,[6]; actein 2 ug/ml alone (simvastatin study),68.2%
same,inhibition at 20 µg/mL,[7]; ERK2 siRNA,79.6%
same,inhibition at 20 µg/mL,[7]; control siRNA,100%
same,IC50,[8],~8 µg/mL
C[C@H]1O[C@@H](O[C@H]2[C@@H](O)C[C@H](O[C@H]3[C@@H](O)C[C@H](O[C@H]4CC[C@@]5(C)[C@H](CC[C@@H]6[C@@H]5CC[C@]5(C)[C@@H](C7=CC(=O)OC7)CC[C@]65O)C4)O[C@@H]3C)O[C@@H]2C)C[C@H](O)[C@@H]1O [digitoxin],IC50,"[1]; BT-474, BT474, Coulter counter",0.03 µg/mL and 40 nM
same,IC50,"[1]; BT-474, BT474, unit inferred",0.039 µM
same,G1,[2]; digitoxin 0.2 μg/mL,46.50 (1.98) %
same,G2,[2]; digitoxin 0.2 μg/mL,19.05 (0.07) %
same,S,[2]; digitoxin 0.2 μg/mL,27.65 (0.64) %
same,SubG1,"[2]; digitoxin 0.2 μg/mL, SD in parentheses",6.77 (1.06) %
same,G1,[2]; digitoxin 2.0 μg/mL,41.90 (2.26) %
same,G2,[2]; digitoxin 2.0 μg/mL,32.10 (1.27) %
same,S,[2]; digitoxin 2.0 μg/mL,17.80 (0.42) %
same,SubG1,[2]; digitoxin 2.0 μg/mL,5.78 (1.02) %
same,IC50,[3],0.8 µM
same,ATPase activity,[4]; digitoxin 0.2 μM alone,87.8%
same,ATPase activity,[4]; digitoxin 0.8 μM alone,53.6%
same,IC50,[5],0.12 µM
same,viability at 0.01 µg/mL,"[6]; Homo sapiens, MDA-MB-453, read-out: percent viable cells, digitoxin 0.01 μg/ml alone (actein study)",62.8%
same,viability at 0.01 µg/mL,"[6]; Homo sapiens, MDA-MB-453, read-out: percent viable cells, digitoxin 0.01 μg/ml alone (paclitaxel study)",73%
same,cell proliferation,[7]; control siRNA,96.0%
same,cell proliferation,[7]; siRNA to MAPK1,76.9%
same,IC50,[8],0.04 µg/mL and 50 nM
